The source made the active and inactive calls. Where only a bound is given, the exact number is not on record here.

Six molecules from ChEMBL document CHEMBL1201862, “PubChem BioAssay data set” (2004) can be followed below.

In assay [1] the target is UDP-galactopyranose mutase (Mycobacterium tuberculosis, UniProt P9WIQ1). The assay can be described thus: Inhibitors of Mycobacterium tuberculosis UDP-galactopyranose mutase (UGM) enzyme Measured in Biochemical System Using Plate Reader - 2105-02_Inhibitor_Dose_CherryPick_Activity. [Related pubchem assays (depositor defined):AID504439].
Chain of UDP-galactopyranose mutase (P9WIQ1 whole entry): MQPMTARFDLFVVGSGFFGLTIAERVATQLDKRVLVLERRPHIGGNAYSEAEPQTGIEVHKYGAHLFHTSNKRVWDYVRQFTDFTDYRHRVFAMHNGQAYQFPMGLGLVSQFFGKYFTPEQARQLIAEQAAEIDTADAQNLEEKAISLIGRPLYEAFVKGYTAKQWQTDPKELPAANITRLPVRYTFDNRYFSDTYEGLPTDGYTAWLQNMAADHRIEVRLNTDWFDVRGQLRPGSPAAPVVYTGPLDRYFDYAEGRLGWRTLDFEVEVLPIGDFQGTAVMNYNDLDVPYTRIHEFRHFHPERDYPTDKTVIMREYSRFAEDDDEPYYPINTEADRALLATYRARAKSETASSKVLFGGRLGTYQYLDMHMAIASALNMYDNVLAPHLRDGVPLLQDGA
Assay [2] addresses T1, Mitochondrial peptide methionine sulfoxide reductase (Bos taurus, UniProt P54149).
T1 sequence (P54149 whole entry): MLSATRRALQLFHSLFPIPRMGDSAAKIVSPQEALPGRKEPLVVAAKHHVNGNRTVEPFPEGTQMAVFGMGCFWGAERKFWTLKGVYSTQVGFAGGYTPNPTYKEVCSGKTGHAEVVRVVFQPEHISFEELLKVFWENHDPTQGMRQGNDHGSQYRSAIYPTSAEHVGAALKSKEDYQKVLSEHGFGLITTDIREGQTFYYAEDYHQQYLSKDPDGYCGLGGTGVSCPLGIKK
The class given is functional.

The target in assay [3] is T2, Mannose-6-phosphate isomerase (Homo sapiens, UniProt P34949).
T2 sequence (P34949 whole entry): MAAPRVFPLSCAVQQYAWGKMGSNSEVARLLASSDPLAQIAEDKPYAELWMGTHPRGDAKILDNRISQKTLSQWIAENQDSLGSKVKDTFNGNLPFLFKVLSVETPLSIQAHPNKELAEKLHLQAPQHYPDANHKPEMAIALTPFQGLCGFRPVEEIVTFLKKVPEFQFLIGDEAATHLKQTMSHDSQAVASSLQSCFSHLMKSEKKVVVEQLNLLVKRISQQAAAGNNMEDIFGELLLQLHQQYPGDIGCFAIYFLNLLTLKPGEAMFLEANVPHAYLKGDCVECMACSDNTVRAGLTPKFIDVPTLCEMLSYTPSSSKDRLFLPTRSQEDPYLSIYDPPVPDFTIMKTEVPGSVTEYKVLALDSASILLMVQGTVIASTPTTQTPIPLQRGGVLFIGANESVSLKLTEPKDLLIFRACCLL
In words: MPI enzyme activity inhibition – biochemical, fluorescence intensity, coupled assay, primary screen (AID 1209).

The target in assay [4] is Peroxisome proliferator-activated receptor gamma/Nuclear receptor coactivator 2 (Homo sapiens, UniProt P37231). In words: TR-FRET dose response biochemical High Throughput Screening assay for agonists of the steroid receptor coactivator 2 (SRC-2) recruitment by the peroxisome proliferator-activated receptor gamma (PPAR gamma): non-selective agonists. [Related pubchem assays: 1297, 1032 ]. It is filed as functional.
Chain of Peroxisome proliferator-activated receptor gamma/Nuclear receptor coactivator 2 (P37231 whole entry): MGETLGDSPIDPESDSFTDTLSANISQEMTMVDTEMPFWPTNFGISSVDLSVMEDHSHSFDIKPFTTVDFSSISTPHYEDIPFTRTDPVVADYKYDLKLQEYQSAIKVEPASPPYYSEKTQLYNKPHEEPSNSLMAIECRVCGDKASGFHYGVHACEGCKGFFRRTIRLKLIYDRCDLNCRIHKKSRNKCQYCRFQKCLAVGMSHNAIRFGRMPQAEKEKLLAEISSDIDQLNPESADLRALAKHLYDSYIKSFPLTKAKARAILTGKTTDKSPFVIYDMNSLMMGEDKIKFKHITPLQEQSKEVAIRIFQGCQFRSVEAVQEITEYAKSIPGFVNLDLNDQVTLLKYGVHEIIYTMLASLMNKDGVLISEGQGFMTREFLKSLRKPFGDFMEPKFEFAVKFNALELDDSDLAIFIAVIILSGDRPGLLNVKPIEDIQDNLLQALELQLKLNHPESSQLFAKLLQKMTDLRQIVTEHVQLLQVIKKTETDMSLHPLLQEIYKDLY
Chain of Peroxisome proliferator-activated receptor gamma/Nuclear receptor coactivator 2 (Q15596 whole entry, further chain): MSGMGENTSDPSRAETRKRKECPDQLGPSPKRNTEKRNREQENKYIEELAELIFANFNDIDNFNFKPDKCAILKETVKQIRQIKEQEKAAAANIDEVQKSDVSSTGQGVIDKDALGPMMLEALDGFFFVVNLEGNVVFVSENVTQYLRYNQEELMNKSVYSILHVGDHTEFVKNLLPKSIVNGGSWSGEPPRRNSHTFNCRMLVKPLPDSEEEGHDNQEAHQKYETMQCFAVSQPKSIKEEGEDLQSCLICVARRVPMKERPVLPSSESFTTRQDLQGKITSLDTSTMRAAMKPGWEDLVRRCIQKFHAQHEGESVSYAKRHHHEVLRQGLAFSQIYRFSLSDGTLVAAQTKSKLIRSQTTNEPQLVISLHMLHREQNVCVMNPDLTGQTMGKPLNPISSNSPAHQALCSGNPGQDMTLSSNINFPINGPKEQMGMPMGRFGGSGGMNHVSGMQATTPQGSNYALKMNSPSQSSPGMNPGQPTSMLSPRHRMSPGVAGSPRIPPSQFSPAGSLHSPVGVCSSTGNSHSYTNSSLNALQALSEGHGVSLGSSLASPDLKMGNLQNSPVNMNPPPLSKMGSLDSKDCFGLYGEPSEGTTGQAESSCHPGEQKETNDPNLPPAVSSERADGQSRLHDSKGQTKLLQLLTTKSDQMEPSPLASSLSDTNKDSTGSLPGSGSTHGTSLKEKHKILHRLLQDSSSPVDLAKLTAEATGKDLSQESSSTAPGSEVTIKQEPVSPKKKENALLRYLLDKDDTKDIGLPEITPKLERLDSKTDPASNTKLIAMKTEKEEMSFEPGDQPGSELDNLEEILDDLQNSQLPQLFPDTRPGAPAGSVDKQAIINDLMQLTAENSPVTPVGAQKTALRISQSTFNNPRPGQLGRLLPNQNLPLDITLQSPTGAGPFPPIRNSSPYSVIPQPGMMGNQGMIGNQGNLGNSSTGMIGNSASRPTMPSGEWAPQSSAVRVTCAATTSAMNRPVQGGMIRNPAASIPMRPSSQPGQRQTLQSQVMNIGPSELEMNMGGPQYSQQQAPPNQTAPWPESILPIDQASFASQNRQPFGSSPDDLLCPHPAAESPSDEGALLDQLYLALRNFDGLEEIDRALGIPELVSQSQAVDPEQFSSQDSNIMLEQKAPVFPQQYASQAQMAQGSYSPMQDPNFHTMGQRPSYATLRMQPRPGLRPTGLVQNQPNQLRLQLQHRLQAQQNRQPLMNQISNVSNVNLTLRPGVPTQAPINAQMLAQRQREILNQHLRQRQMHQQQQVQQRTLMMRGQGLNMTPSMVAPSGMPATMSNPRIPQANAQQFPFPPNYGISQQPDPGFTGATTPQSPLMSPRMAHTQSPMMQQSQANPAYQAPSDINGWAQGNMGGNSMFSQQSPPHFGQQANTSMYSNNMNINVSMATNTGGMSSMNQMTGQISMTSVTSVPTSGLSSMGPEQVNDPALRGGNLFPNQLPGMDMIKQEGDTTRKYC

Assay [5] in a line: general mammalian cell viability loss – activator set, cherry-pick, cytotoxicity control for miR-122 modulator project, dose response (AID 720690).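 Note: HEK293T human cells scored for general mammalian cytotoxicity.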 It is filed as functional, cell-based.
The target of assay [6] is Neuropeptide Y receptor type 2 (Homo sapiens, UniProt P49146). It is filed as functional, cell-based.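 Note: HEK293 cells expressing the receptor and a CNG channel; stimulus was NPY near EC95 followed by isoproterenol to raise cAMP; antagonist potency measured as restoring cAMP signal that NPY suppresses.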
Chain of Neuropeptide Y receptor type 2 (P49146 whole entry): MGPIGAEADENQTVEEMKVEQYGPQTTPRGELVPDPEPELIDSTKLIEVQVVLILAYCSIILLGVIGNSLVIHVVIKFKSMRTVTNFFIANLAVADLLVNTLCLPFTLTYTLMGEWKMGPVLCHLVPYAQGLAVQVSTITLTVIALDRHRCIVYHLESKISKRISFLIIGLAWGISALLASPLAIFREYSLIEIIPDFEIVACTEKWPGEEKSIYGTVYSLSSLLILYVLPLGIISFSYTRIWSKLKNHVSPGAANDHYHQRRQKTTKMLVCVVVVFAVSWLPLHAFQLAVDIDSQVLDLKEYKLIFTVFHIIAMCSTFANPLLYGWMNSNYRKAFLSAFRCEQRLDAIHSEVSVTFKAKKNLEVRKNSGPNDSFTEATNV
A short description of assay [7]: alpha-synuclein stem-loop luciferase translation blockers – H4 neuroglioma cells, luminescence, confirmation (AID 1988). The class given is functional, cell-based.
Assay [8] in a line: Vero E6 cell cytotoxicity, dose response, cytotoxicity control for non-replicating M. tuberculosis project, secondary assay (AID 492998). It is filed as functional, VeroE6. Conditions: Vero C1008.
For assay [9], the target named is Peroxisome proliferator-activated receptor gamma/Nuclear receptor coactivator 1 (Homo sapiens, UniProt P37231). In words: TR-FRET dose response biochemical High Throughput Screening assay for agonists of the steroid receptor coactivator 1 (SRC-1) recruitment by the peroxisome proliferator-activated receptor gamma (PPAR gamma): non-selective agonists. [Related pubchem assays (depositor defined):AID1300, AID1808, AID504735, AID631]. It is filed as protein assay. A general note: TR-FRET usually uses a lanthanide donor and a delayed reading to cut background.

Assay [10] in a line: Luminescence Cell-Based Dose Response HTS to Identify Inhibitors of 5'UTR Stem-Loop Driven Prion Protein mRNA Translation in H4 Neuroglioblastoma Cells. [Related pubchem assays: 1827 (Project Summary), 1813 (Primary HTS)]. The class given is functional.
In assay [11] the test system is BJ. In words: growth inhibition of engineered Ras-driven BJ cells – cell-based, alamar blue fluorescence, cherrypicked samples, dose response (AID 2631).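 Note: confirmatory dose-response assay in RAS-dependent BJ fibroblasts engineered with TERT, LT and ST, with cytotoxicity read by fluorescence.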 The class given is functional. Conditions: Homo sapiens. For orientation: The colour change of resazurin is a common sign of viable cells or microbes.
Assay [12] deals with Peroxisome proliferator-activated receptor gamma/Nuclear receptor coactivator 3 (Homo sapiens, UniProt P37231). The assay can be described thus: TR-FRET dose response biochemical High Throughput Screening assay for agonists of the steroid receptor coactivator 3 (SRC-3) recruitment by the peroxisome proliferator-activated receptor gamma (PPAR gamma): non-selective agonists. [Related pubchem assays: 1301 (Confirmation screen.), 1048 (Primary screen.)]. It is filed as functional.
Chain of Peroxisome proliferator-activated receptor gamma/Nuclear receptor coactivator 3 (P37231 whole entry): as the sequence (P37231 whole entry) above
Chain of Peroxisome proliferator-activated receptor gamma/Nuclear receptor coactivator 3 (Q9Y6Q9 whole entry, further chain): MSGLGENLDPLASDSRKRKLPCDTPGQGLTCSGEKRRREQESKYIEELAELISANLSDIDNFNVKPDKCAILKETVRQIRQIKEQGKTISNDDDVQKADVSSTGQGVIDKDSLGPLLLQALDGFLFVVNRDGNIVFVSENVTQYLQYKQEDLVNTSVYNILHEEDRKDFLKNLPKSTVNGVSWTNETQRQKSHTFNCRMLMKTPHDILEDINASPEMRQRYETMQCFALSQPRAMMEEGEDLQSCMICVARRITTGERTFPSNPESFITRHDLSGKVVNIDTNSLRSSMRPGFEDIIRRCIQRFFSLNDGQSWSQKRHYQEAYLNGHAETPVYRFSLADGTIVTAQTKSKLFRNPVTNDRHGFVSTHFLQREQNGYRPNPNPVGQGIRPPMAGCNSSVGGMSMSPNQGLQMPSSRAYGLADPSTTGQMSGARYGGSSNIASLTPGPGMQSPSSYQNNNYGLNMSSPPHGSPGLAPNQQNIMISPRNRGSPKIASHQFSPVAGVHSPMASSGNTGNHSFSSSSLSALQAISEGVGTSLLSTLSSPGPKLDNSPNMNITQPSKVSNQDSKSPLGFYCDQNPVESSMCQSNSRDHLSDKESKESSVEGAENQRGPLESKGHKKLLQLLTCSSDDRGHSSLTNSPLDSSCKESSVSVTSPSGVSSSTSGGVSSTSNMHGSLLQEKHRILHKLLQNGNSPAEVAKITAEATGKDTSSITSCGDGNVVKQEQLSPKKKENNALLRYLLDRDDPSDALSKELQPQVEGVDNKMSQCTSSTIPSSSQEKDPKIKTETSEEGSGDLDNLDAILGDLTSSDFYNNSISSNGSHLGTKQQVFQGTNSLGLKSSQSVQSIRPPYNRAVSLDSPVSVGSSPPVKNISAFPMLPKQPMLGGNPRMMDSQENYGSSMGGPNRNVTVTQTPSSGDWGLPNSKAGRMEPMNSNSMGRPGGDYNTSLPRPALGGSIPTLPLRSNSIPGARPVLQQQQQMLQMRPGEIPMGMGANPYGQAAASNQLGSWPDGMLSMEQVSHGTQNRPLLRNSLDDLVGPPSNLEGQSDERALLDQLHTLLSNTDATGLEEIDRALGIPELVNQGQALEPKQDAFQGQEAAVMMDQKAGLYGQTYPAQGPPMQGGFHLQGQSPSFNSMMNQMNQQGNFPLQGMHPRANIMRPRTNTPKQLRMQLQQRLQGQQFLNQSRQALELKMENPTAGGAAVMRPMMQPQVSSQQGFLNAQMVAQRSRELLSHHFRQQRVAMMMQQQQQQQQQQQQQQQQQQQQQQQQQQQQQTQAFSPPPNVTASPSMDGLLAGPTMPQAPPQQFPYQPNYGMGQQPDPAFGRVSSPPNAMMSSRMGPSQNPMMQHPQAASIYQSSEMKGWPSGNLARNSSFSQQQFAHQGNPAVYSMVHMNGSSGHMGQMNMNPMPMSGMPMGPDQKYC

In assay [13] the target is T1, Mitochondrial peptide methionine sulfoxide reductase. The assay can be described thus: Absorbance-based biochemical high throughput dose response assay for activators of Methionine sulfoxide reductase A (MsrA). The class given is functional.
Assay [14] in a line: DRD fibroblast viability loss – cell-based, non-viral oncogenic, luminescence, dose response (AID 1934). It is filed as functional. To be noted: Homo sapiens.
The target in assay [15] is Heat shock protein HSP 90-alpha (Homo sapiens, UniProt P07900). The class given is functional, organism-based.
Assay [16] in a line: cells. It is filed as functional, cell-based.
Assay [17] concerns Jurkat. In words: SAR Analysis of small molecule inhibitors of T-cell specific antigen receptor-induced NF-kB activation in a Jurkat cell line using a luminescence assay - Set 2. [Related pubchem assays (depositor defined):AID435003, AID435012, AID465]. It is filed as functional, cell-based. Conditions: Homo sapiens.
The nature of assay [18]: NIH3T3 cell viability loss – ATP luminescence, mouse fibroblasts, counter-screen, dose response (AID 2010).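 Note: cells exposed to compound for about 90 hours before reading.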 The class given is functional, cell-based. (In general: A counterscreen serves to expose hits that act by an unwanted route or on another target.)
Assay [19] can be described thus: Counterscreen for AddAB inhibitors: absorbance-based bacterial cell-based high throughput dose response assay for inhibitors of bacterial viability. [Related pubchem assays (depositor defined):AID435030, AID449728, AID449731, AID488942, AID488955, AID488956]. The class given is functional.
The test system of assay [20] is HEK293. The assay can be described thus: SAR Analysis of small molecule inhibitors of T-cell specific antigen receptor-induced NF-kB activation in a HEK-293T cell line using a luminescence assay. [Related pubchem assays (depositor defined):AID435003, AID435012, AID489026]. Conditions: Homo sapiens. It is filed as functional, cell-based.
Assay [21] deals with Voltage-gated N-type calcium channel alpha-1B subunit/Amyloid beta A4 precursor protein-binding family A member 1 (Homo sapiens, UniProt Q00975+Q02410). It is filed as protein assay.
Assay [22] has as its target Fatty acid synthase (Homo sapiens, UniProt P49327). In words: inhibition of human FAS-TE enzyme activity – biochemical, endpoint fluorescence intensity, uHTS hits, dose response (AID 624327).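 Note: fluorescence from hydrolysis of an O-methyl fluorescein acyl ester substrate by the enzyme.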 The class given is functional.
For assay [23], the target named is Small ubiquitin-related modifier 1 (Homo sapiens, UniProt P63165). The assay can be described thus: SUMO1 protein interaction blockers, potency – biochemical, fluorescence polarization, uHTS hits, dose response (AID 624382). It is filed as functional. Conditions: read-out: IC50_Mean.
Chain of Small ubiquitin-related modifier 1 (P63165 whole entry): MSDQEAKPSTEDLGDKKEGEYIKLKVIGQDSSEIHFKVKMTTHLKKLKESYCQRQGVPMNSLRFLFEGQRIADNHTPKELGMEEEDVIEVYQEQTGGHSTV
Assay [24] addresses T3, Protein Tat (Human immunodeficiency virus type 1 group M subtype B (isolate HXB2)(HIV-1), UniProt P04608).
T3 sequence (P04608 whole entry): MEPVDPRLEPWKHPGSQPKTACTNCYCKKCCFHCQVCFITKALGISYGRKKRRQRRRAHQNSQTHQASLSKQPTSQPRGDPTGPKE
The class given is functional.

Take `COC(CNC(=O)c1ccc2c3c(onc13)-c1ccccc1C2=O)OC`: the AC50 in assay [1] was 2.79 µM (active).
With `O=C(O)c1ccc(NC2=C/C(=N/S(=O)(=O)c3ccccc3)c3ccccc3C2=O)cc1`, the IC50 in assay [2] is 6.42 µM (active).
For the molecule `Nc1ccc2c(c1)C(=O)C(=O)c1ccccc1-2`, the values for the IC50 in assay [3] and in assay [6] were > 50 µM (not active) and 4.25 µM (active), respectively. The EC50 in assay [4] was 12.1 µM (not active); in [7] it was > 120 µM (not active); in assay [9], 12.3 µM (inactive); in [10] it was 8.68 µM (inconclusive); in [11], 2.8 µM (active); in [12], > 79.4 µM (not active). Also, the values for the EC50 in assay [13] and in [14] were 9.09 µM (active) and 4.42 µM (active), respectively. The AC50 in assay [5] was 6.54 µM (active). Besides, the half-maximal cytotoxic concentration (CC50) in [8] is 1.81 µM (active).
For the molecule `Cc1ccc2nc(/C(C#N)=C\c3ccc([N+](=O)[O-])o3)[nH]c2c1`, in assay [15], the half-maximal activity concentration (AC50) was < 0.195 µM (active).
As for `CCCC(=O)NC(c1ccccc1OC)c1ccc2cccnc2c1O` (centres undefined), the values for the EC50 in assay [16] and in [18] were 7.86 µM (active) and 1.55 µM (active), respectively. Further, the IC50 is 5.16 µM (active) in [17], > 119 µM (inactive) in assay [19] and 12.5 µM (active) in assay [20].
Take `COc1cc(-c2ccc(Nc3ccccc3C(=O)O)c(OC)c2)ccc1Nc1ccccc1C(=O)O`: the IC50 in assay [21] is 7.6 µM (active); in assay [22], 7.61 µM (active); in assay [23], 0.647 µM (active); in assay [24] it was 12.7 µM (inconclusive).

One may read the AC50 as the concentration at which the activity in the assay is half-maximal. Usually EC50 stands for the midpoint of the concentration-response curve. Broadly, the CC50 is the concentration at which the toxic effect on the cells reaches its halfway point.
